# Key:
# Solubility in water = type: physicochemical; conditions: in words
# Description: Compound I can exist in two polymorphic forms. In an earlier experiment similar to Experiment E with the exception that an excess of piperazine hydrobromide was used, a water soluble form (Isomorph A) of Compound I having a M.P. of 224°-228° C. was obtained. This product was recrystallized from nitromethane to give an analytical sample of Isomorph A having a M.P. of 227°-229° C.
# A 200 mg. sample of Isomorph A was dissolved in 10 ml. of water at 20° C. The solution was heated at 60° C. for 3 minutes, then cooled to 35° C. and filtered. […] This product was termed Isomorph B of Compound I.
# humans [1] = conditions: clinical, in words; literature; cited from earlier work
# humans [2] = assay: Clinical use as antihypertensive agent (literature); type: in vivo, human; conditions: lower end of clinical daily dosage range (trimazosin 150 to 500 mg, prazosin 1.5 to 15 mg)
# α-adrenergic receptor [3] = molecular target: T1, α-adrenergic receptor (Rattus norvegicus, UniProt P43140); assay: Isolated rat seminal vesicle assay (inhibition of norepinephrine induced contractions; α-adrenergic receptor blocking effect in vitro); conditions: for decrease in the sensitivity of isolated rat seminal vesicles to the stimulant activity of NE: 10 nanograms/ml; for NE ED50 with 95% Conf. Limits: NE ED50 in presence of test compound 10 nano/ml, control 0.89 (0.84-0.94)
# T1 construct: Seminal vesicles were removed and transfered to a shallow dish containing modified Tyrode's solution; from tissue; host or cells: isolated seminal vesicle of male Long Evans rats
# T1 sequence (P43140 1-466): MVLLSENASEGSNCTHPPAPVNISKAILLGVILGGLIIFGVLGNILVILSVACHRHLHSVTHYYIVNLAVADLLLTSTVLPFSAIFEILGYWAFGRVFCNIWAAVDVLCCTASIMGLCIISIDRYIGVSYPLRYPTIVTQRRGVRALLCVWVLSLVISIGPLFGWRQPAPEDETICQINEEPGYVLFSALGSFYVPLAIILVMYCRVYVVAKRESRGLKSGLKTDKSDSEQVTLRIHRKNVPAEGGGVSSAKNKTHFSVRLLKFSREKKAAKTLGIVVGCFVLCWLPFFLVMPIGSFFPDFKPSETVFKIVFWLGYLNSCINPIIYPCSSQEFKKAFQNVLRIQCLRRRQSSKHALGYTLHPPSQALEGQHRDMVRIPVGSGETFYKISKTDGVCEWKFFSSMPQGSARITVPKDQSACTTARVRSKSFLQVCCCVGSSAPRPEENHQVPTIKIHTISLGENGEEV
# Description: (§1) In Table 1, antihypertensive activity was determined by oral administration to spontaneous hypertensive rats, and the in vitro and in vivo α-adrenergic receptor blocking effect was determined by tests described following Table 1. In the in vitro test, the inhibition by BL-5111 of norepinephrine induced contractions of rat seminal vesicles was measured; and in the in vivo test, the inhibition by BL-5111 of norepinephrine induced pressor responses in anesthetized dogs was measured.
# Dangan et al, Int. […] Lietch et al, Brit.
# Male Long Evans rats weighing approximately 300 g. were sacrificed by a sharp blow on the head. Seminal vesicles were removed and transfered to a shallow dish containing modified Tyrode's solution. The vesicles were emptied of their contents by squeezing them gently with a pair of forceps. Silk thread (4-0) was attached to both ends of the vesicle and it was suspended in a 20 ml. muscle chamber containing modified oxygenated Tyrode's solution (g./liter: NaCl 8, KCl 0.2, CaCl2 0.26, NaHCO3 1, Na2 HPO4 0.0575, glucose 0.5 and MgCl2 0.02). The bathing fluid was maintained at 37° C. with a thermostatically controlled isolated organ tissue bath. Contractions were recorded isometrically by means of a force displacement transducer and recordings were made with a Beckman RP Dynograph. Norepinephrine (NE) was added to the muscle chamber in volumes ranging from 0.1 to 0.4 ml. with a one ml. syringe attached to a 3 inch 20 gauge needle. NE and test compounds were dissolved in deionized water.
# NE dose response curves were obtained alone and in the presence of test compounds. NE was allowed to remain in contact with the strip until a maximal contraction was obtained. The strip was then washed with the perfusion fluid for 15-30 seconds and the preparation was allowed to return to base line before a subsequent dose of NE was given. Increasing amounts of NE were injected into the bath in the same manner until a complete dose response was obtained.
# The seminal vesicles used to obtain the control NE dose response were discarded and new preparations were placed in the tissue bath for evaluation of the test compound. The test compound was added directly to the perfusion fluid (10 nanograms/ml.) and the strips were allowed to remain in contact with the bathing media for at least 10 minutes before the NE dose response was determined.
# ED50 values for NE were obtained by regression analysis as described by Finney, Probit. Analysis, 2d Ed., Cambridge (1964). A minimum of 4 strips and at least 4 doses were employed to calculate the regression lines. The ED50 value is defined as the concentration of NE which produces a contraction equal to 50% of the maximal contraction.
# [4] = test system: spontaneous hypertensive rats; assay: Antihypertensive activity, oral administration to spontaneous hypertensive rats; type: in vivo, rat; conditions: for ED50: Rattus norvegicus, read-out: Antihypertensive Activity ED50 mm Hg
# Description: In Table 1, antihypertensive activity was determined by oral administration to spontaneous hypertensive rats, and the in vitro and in vivo α-adrenergic receptor blocking effect was determined by tests described following Table 1.
# in vivo = conditions: mouse, IV, mice
# α-adrenergic receptor [5] = assay: Anesthetized dog assay for α-adrenergic blocking agents (inhibition of norepinephrine induced pressor responses); type: in vivo
# Description: as §1
# Nash, C. B., Pharmacological Research Communications, 4:423, (1969) and Maxwell, R. A., Drill's Pharmacology in Medicine, (1971) p. 683 have shown that in anesthetized dogs α-adrenergic blocking agents antagonize the blood pressure elevating effects of intravenous norepinephrine. Thus, blood pressure responses to norepinephrine (NE) in anesthetized dogs was used as a comparative assay for α-adrenergic receptor blocking properties of drugs.
# Experiments were done on mongrel dogs anesthetized with sodium pentobarbital, 30 mg./kg. iv. The left femoral artery was cannulated to record aortic blood pressure and a femoral vein was cannulated for administration of drugs. All animals underwent a bilateral vagotomy. A norepinephrine dose-response curve was obtained by administering increasing doses of iv. norepinephrine (0.01 - 1 μg/kg). […] Approximately 30 minutes later a dose-response curve was again established for iv. norepinephrine (0.01-10 μg/kg).
# α-adrenergic receptor [6] = conditions: in words; literature; cited from earlier work
# vascular smooth muscle = conditions: in words; literature; cited from earlier work
# [7] = 10 nano/ml, isolated rat seminal vesicles
# [8] = 1 mg/kg, oral, spontaneous hypertensive rats
# [9] = 3 mg/kg, oral, spontaneous hypertensive rats
# [10] = 10 mg/kg, oral, spontaneous hypertensive rats
# [11] = oral, spontaneous hypertensive rats
SMILES,solubility in water (Solubility in water),Percent Change From Control (NE ED50) (α-adrenergic receptor [3]; [7]),decrease in the sensitivity of isolated rat seminal vesicles to the stimulant activity of NE (α-adrenergic receptor [3]; in words),NE ED50 with 95% Conf. Limits (α-adrenergic receptor [3]; isolated rat seminal vesicles),"% Blood Pressure Change [4, 8]","% Blood Pressure Change [4, 9]","% Blood Pressure Change [4, 10]","ED50 [4, 11]",further results
"COc1cc2nc(N3CCNCC3)nc(N)c2cc1OC [Isomorph A, 4-amino-6,7-dimethoxy-2-(1-piperazinyl)quinazoline]",water soluble,–,–,–,–,–,–,–,–
COc1cc2c(N)nc(N3CCN(C(=O)OCC(C)(C)O)CC3)nc2c(OC)c1OC [Trimazosin],–,–,–,–,–,–,–,–,activity in humans as an antihypertensive agent (humans [1]): active in humans as an antihypertensive agent; potency relative to prazosin (fold weaker) (humans [2]): 100 fold
"COc1cc2nc(N3CCN(C(=O)c4nnc(SC)o4)CC3)nc(N)c2cc1OC.Cl [BL-5111, 4-Amino-6,7-dimethoxy-2-[4-(5-methylthio-1,3,4-oxadiazole-2-carbonyl)-piperazin-1-yl]-quinazoline hydrochloride]",–,4.5%,essentially inactive,0.93 (0.80-1.08) μg/ml,-19%,-26%,-41%,2.3 mg/kg,"Activity Ratio Relative to Prazosin (α-adrenergic receptor [3]; Table II, 10 nano/ml, isolated rat seminal vesicles): 0.008; α-adrenergic blocking activity relative to prazosin (α-adrenergic receptor [3]; conclusion from isolated rat seminal vesicles, in words): less than one percent; antihypertensive potency compared to prazosin ([4]; in words): comparable antihypertensive potency to prazosin; Antihypertensive Activity Ratio ([4]; relative to prazosin, oral, spontaneous hypertensive rats): 0.91; LD50 (in vivo): 45.7 mg/kg; times less active than prazosin in causing α-adrenergic blockade (α-adrenergic receptor [5]; 3 mg/kg iv, anesthetized dogs): approximately 30 times; α-Adrenergic Receptor Blocking Effect, In Vivo Activity Ratio (α-adrenergic receptor [5]; Table 1, relative to prazosin, intravenous, anesthetized dogs): 0.04; Activity Ratio Relative to Prazosin (α-adrenergic receptor [5]; Table III, 3 mg/kg iv, anesthetized dogs): 0.036; peripheral α-adrenergic blocking properties (α-adrenergic receptor [5]; in words, in vitro and in vivo tests together (Table 1)): little or none of the peripheral α-adrenergic blocking properties shown by prazosin"
"COc1cc2nc(N3CCNCC3)nc(N)c2cc1OC [Isomorph B, 4-amino-6,7-dimethoxy-2-(1-piperazinyl)quinazoline]",would not redissolve in boiling water,–,–,–,–,–,–,–,–
"COc1cc2nc(N3CCN(C(=O)c4ccco4)CC3)nc(N)c2cc1OC [Prazosin, 2-[4-(2-furoyl)-piperazin-1-yl]-4-amino-6,7-dimethoxyquinazoline, reference compound]",–,578%,nearly a six fold decrease,6.03 (5.30-6.81) μg/ml,-14%,-29%,-42%,2.1 mg/kg,peripheral α-adrenergic receptor blockade (α-adrenergic receptor [6]): functional peripheral α-adrenergic receptor blockade; vasodilation effect on vascular smooth muscle (vascular smooth muscle): direct peripheral vasodilation effect on vascular smooth muscle
